Assay [1] addresses T1, Dihydrofolate reductase (Escherichia coli) (UniProt P0ABQ4).
T1 sequence (whole entry): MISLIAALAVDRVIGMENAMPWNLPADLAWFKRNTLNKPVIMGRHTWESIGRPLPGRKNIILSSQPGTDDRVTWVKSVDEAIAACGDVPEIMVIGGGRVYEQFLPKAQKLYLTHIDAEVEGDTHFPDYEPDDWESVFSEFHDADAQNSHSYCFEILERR
Description: Apparent inhibitory (log 1/Ki) activity against Escherichia coli dihydrofolate reductase

Assay [2] concerns Escherichia coli. The assay is described as follows: The logarithm of the inverse of the concentration (log 1/C) for the inhibition of Escherichia coli MB 1428 growth by 80%. Format: functional.
Assay [3] relates to Escherichia coli. The assay is described as follows: The logarithm of the inverse of the concentration (log 1/C) for the inhibition of Escherichia coli 1515 (Escherichia coli) growth by 80%. Format: functional.

As to `CCOc1cc(Cc2cnc(N)nc2N)cc(OCC)c1`, the Log 1/Ki app in assay [1] was found to be 9.11. The “Log 1/C” value with Escherichia coli [2] is 4.77; with Escherichia coli [3], 6.54.

Compound `CCCOc1cc(Cc2cnc(N)nc2N)cc(Br)c1OC` returned a Log 1/Ki app in assay [1] of 8.96. The “Log 1/C” value with Escherichia coli [2] turned out to be 6.07; in the assay on Escherichia coli [3], 4.91.

`CCCCOc1ccc(Cc2cnc(N)nc2N)cc1OC` displayed a Log 1/Ki app in assay [1] of 9.01. The “Log 1/C” value in the assay on Escherichia coli [2] amounted to 4.98; with Escherichia coli [3], 5.93.

As for `Nc1ncc(Cc2ccc([N+](=O)[O-])cc2)c(N)n1`, the Log 1/Ki app in assay [1] came to 6.2.

In assay [1], `COc1cc(Cc2cnc(N)nc2N)ccc1O` showed a Log 1/Ki app of 9.05. For the same compound, the “Log 1/C” value in the assay with Escherichia coli [2] came to 3.51; in the assay with Escherichia coli [3], 6.45.

`CCCOc1cc(Cc2cnc(N)nc2N)cc(OCCC)c1` gave a Log 1/Ki app in assay [1] of 8.8.

`COc1cc(Cc2cnc(N)nc2N)ccc1OCc1ccccc1` registered a Log 1/Ki app in assay [1] of 9.43. Further, the “Log 1/C” value with Escherichia coli [2] is on record as 5.02; with Escherichia coli [3] it was 4.96.

Regarding `COc1ccc(Cc2cnc(N)nc2N)cc1OS(C)(=O)=O`, in assay [1], the Log 1/Ki app was found to be 8.96. For the same compound, the results for the “Log 1/C” value in the assay on Escherichia coli [2] and in the assay on Escherichia coli [3] were 4.13 and 6.42, respectively.

In assay [1], `Nc1ncc(Cc2cc(OCc3ccccc3)cc(OCc3ccccc3)c2)c(N)n1` registered a Log 1/Ki app of 8.77.

Turning to `Nc1ncc(Cc2ccc(OCc3ccccc3)cc2)c(N)n1`, the Log 1/Ki app in assay [1] was 8.7.

Compound `COc1ccc(Cc2cnc(N)nc2N)cc1C(F)(F)F` registered a Log 1/Ki app in assay [1] of 7.69.

In turn, `COCCOc1ccc(Cc2cnc(N)nc2N)cc1OC` came in with a Log 1/Ki app in assay [1] of 9.25. In addition, the figures for the “Log 1/C” value in the assay on Escherichia coli [2] and in the assay on Escherichia coli [3] were 4.3 and 5.82, respectively.

As to `COCCOc1cc(Cc2cnc(N)nc2N)ccc1OC`, the Log 1/Ki app in assay [1] is 8.74.

On to `COc1ccc(Cc2cnc(N)nc2N)cc1OCc1ccccc1`, for which the Log 1/Ki app in assay [1] was determined as 10. Further, the “Log 1/C” value is reported as 5.02 with Escherichia coli [2] and 4.96 in the assay with Escherichia coli [3].

`CS(=O)(=O)Oc1cccc(Cc2cnc(N)nc2N)c1` had a Log 1/Ki app in assay [1] of 6.92.

Turning to `Nc1ncc(Cc2ccc(OC(F)(F)F)cc2)c(N)n1`, in assay [1], the Log 1/Ki app amounted to 6.57.

For the compound `CS(=O)(=O)Oc1ccc(Cc2cnc(N)nc2N)cc1`, the Log 1/Ki app in assay [1] came to 8.15.

For the compound `CCCOc1cc(Cc2cnc(N)nc2N)cc(OCC)c1`, the Log 1/Ki app in assay [1] stood at 8.49.

In assay [1], `Cc1cc(C)cc(Cc2cnc(N)nc2N)c1` returned a Log 1/Ki app of 8.05.

Turning to `CCCCOc1cc(Cc2cnc(N)nc2N)cc(Br)c1OC`, the Log 1/Ki app in assay [1] turned out to be 8.96. Further, the “Log 1/C” value with Escherichia coli [2] is 6.24; in the assay with Escherichia coli [3] it was 5.02.

With `CC(=O)Nc1ccc(Cc2cnc(N)nc2N)cc1[N+](=O)[O-]`, the Log 1/Ki app in assay [1] amounted to 6.97.

Source of the values: ChEMBL document CHEMBL1124032, “Quantitative structure-activity relationships for the inhibition of Escherichia coli dihydrofolate reductase by 5-(substituted benzyl)-2,4-diaminopyrimidines” (1988).
